Test results reported in the kinase profiling compilation of Christmann-Franck et al. (2016).

What was measured:
Assay in all cases: radiometric filter-binding kinase assay, Kinase HotSpot
Conditions in all cases: compound 0.5 µM; ATP 10 µM
[1] = molecular target: BTK (human) (UniProt Q06187)
[2] = molecular target: CAMK2A (human) (UniProt Q9UQM7)
[3] = molecular target: CAMK2G (human) (UniProt Q13555)
[4] = molecular target: CSF1R (human) (UniProt P07333)
[5] = molecular target: CSNK1G1 (human) (UniProt Q9HCP0)
[6] = molecular target: CSNK1G2 (human) (UniProt P78368)
Chain of CSNK1G2 (human) (P78368 whole entry, looked up): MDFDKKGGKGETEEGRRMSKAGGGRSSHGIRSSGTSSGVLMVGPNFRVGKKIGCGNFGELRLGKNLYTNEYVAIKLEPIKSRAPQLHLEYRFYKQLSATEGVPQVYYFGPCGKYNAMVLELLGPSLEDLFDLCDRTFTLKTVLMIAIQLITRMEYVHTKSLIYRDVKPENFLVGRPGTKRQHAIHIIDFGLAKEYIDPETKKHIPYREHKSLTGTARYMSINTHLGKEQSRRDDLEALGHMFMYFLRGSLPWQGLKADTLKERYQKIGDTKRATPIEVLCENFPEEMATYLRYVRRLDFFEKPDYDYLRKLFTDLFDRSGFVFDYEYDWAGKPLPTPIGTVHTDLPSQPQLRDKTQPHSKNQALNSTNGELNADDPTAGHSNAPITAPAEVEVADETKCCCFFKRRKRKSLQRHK

[7] = molecular target: CSNK2A2 (human) (UniProt P19784)
[8] = molecular target: DMPK (human) (UniProt Q09013)
[9] = molecular target: DYRK1A (human) (UniProt Q13627)
[10] = molecular target: DYRK3 (human) (UniProt O43781)
[11] = molecular target: EPHA1 (human) (UniProt P21709)
[12] = molecular target: EPHA8 (human) (UniProt P29322)
Chain of EPHA8 (human) (P29322 whole entry, looked up): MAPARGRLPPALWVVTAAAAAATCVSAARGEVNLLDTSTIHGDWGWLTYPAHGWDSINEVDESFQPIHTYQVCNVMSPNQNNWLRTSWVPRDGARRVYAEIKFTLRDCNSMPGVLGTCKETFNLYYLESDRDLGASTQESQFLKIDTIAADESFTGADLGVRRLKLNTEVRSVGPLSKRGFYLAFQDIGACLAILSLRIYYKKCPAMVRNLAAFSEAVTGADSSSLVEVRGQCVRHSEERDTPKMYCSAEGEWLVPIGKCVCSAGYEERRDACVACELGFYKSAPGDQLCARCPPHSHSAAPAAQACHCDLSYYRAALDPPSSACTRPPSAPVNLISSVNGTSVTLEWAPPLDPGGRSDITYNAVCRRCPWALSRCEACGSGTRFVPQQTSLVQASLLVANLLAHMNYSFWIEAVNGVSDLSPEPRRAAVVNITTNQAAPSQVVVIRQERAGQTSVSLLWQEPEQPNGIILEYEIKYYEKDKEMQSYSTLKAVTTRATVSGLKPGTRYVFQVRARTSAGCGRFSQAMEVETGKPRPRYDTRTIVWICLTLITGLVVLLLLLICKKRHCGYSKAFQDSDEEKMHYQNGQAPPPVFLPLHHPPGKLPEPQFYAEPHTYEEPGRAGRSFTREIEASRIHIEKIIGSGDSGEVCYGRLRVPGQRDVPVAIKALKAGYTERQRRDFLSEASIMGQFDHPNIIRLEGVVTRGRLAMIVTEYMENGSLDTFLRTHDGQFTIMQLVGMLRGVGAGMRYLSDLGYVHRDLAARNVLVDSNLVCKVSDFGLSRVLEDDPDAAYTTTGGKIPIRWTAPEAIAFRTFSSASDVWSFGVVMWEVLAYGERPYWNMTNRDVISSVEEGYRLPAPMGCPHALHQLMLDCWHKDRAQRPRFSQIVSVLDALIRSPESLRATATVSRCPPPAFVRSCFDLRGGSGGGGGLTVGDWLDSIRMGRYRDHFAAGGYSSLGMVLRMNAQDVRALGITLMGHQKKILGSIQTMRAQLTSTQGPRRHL

[13] = molecular target: EPHB3 (human) (UniProt P54753)
[14] = molecular target: FGFR3 (human) (UniProt P22607)
[15] = molecular target: FGFR4 (human) (UniProt P22455)
[16] = molecular target: GSK3B (human) (UniProt P49841)
[17] = molecular target: HIPK1 (human) (UniProt Q86Z02)
[18] = molecular target: ITK (human) (UniProt Q08881)
[19] = molecular target: JAK3 JH1 JH2 (human) (UniProt P52333)
[20] = molecular target: MAP3K5 (human) (UniProt Q99683)
[21] = molecular target: MAP4K4 (human) (UniProt O95819)
[22] = molecular target: MARK3 (human) (UniProt P27448)
[23] = molecular target: MERTK (human) (UniProt Q12866)
[24] = molecular target: MINK1 (human) (UniProt Q8N4C8)
[25] = molecular target: MUSK (human) (UniProt O15146)
[26] = molecular target: MYLK2 (human) (UniProt Q9H1R3)
Chain of MYLK2 (human) (Q9H1R3 whole entry, looked up): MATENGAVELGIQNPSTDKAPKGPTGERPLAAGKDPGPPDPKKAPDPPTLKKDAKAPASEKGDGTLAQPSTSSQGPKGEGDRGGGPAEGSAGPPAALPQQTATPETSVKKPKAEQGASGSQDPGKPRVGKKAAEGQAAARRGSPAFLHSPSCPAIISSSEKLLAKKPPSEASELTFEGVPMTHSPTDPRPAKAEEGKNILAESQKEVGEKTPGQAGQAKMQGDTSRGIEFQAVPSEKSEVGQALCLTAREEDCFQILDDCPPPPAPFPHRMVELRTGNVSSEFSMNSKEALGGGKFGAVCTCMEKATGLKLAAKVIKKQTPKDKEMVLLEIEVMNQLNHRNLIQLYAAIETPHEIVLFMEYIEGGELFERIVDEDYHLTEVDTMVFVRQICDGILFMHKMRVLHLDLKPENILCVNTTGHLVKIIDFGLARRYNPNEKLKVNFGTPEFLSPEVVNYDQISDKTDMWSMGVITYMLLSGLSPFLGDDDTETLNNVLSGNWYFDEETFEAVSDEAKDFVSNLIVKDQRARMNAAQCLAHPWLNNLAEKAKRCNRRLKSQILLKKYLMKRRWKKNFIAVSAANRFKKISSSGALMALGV

[27] = molecular target: NEK3 (human) (UniProt P51956)
[28] = molecular target: NEK7 (human) (UniProt Q8TDX7)
[29] = molecular target: NUAK1 (human) (UniProt O60285)
[30] = molecular target: OXSR1 (human) (UniProt O95747)
[31] = molecular target: PBK (human) (UniProt Q96KB5)
[32] = molecular target: PIM1 (human) (UniProt P11309)
[33] = molecular target: PIM3 (human) (UniProt Q86V86)
[34] = molecular target: PLK3 (human) (UniProt Q9H4B4)
[35] = molecular target: PNCK (human) (UniProt Q6P2M8)
[36] = molecular target: PRKACA (human) (UniProt P17612)
[37] = molecular target: RAF1 (human) (UniProt P04049)
[38] = molecular target: SRMS (human) (UniProt Q9H3Y6)
Chain of SRMS (human) (Q9H3Y6 whole entry, looked up): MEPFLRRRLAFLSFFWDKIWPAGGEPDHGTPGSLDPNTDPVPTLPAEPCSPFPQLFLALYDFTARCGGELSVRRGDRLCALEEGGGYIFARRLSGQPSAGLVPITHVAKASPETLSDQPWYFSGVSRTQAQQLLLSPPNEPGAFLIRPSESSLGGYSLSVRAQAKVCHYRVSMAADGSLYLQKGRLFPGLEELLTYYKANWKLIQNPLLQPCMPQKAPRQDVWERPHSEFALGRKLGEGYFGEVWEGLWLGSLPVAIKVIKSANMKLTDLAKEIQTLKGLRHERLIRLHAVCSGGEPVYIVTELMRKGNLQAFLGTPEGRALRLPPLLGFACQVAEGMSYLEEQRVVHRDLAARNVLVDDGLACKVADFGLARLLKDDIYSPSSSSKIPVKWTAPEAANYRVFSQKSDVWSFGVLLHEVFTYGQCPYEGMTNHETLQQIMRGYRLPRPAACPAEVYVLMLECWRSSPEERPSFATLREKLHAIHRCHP

[39] = molecular target: STK25 (human) (UniProt O00506)
Chain of STK25 (human) (O00506 whole entry, looked up): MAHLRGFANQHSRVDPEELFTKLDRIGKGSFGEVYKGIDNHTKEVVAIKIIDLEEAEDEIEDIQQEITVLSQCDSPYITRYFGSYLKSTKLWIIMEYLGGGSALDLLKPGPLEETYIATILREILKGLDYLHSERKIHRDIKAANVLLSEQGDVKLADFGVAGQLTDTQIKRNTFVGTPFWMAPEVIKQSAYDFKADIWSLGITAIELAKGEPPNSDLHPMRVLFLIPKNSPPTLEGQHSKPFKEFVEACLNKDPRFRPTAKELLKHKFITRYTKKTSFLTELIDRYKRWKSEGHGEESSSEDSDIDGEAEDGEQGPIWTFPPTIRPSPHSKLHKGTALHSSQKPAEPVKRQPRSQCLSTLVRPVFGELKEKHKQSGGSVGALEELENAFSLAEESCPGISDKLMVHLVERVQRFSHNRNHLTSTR

[40] = molecular target: STK33 (human) (UniProt Q9BYT3)
[41] = molecular target: ULK1 (human) (UniProt O75385)
[42] = molecular target: WEE1 (human) (UniProt P30291)

Chain of CAMK2G (human) (Q13555 whole entry, looked up): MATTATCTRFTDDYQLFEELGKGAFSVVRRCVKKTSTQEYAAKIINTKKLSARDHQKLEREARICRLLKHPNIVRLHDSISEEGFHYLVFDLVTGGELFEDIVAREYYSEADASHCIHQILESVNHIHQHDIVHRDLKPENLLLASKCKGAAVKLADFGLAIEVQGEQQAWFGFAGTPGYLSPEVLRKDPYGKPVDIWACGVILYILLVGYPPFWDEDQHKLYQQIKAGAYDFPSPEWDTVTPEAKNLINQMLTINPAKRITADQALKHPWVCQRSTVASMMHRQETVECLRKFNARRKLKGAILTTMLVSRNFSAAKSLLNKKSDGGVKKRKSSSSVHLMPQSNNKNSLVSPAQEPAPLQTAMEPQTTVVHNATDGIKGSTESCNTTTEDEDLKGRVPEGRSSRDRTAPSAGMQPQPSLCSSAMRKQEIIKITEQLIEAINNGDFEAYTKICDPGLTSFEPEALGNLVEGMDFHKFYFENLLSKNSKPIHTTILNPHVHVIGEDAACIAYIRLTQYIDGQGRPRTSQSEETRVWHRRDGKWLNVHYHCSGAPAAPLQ
Chain of CSF1R (human) (P07333 whole entry, looked up): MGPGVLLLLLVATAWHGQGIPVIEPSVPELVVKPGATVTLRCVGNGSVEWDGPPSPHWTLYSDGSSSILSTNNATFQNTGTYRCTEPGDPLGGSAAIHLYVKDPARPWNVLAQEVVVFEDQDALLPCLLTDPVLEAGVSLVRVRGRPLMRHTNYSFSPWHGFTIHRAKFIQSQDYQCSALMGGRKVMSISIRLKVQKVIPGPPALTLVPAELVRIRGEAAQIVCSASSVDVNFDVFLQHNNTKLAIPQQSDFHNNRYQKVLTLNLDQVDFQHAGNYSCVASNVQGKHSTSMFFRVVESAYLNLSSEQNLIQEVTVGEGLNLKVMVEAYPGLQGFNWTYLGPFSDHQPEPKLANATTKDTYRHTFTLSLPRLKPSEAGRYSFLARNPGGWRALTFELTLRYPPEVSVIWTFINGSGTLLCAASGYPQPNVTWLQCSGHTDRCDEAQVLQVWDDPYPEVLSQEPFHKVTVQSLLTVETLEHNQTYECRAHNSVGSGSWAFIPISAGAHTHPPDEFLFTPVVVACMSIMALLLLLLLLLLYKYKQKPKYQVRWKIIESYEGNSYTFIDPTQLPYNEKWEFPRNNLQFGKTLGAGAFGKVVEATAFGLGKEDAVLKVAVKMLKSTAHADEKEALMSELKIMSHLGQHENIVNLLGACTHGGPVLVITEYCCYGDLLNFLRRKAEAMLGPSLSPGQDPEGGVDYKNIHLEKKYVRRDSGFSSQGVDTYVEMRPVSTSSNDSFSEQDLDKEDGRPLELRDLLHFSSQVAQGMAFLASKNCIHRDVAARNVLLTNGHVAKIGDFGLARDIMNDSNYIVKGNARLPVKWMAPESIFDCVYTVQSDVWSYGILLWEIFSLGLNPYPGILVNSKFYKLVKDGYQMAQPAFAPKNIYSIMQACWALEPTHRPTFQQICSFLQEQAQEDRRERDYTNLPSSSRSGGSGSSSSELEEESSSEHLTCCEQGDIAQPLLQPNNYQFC

Oc1ccc(Nc2nc(-c3ccc(Cl)cc3)cs2)cc1 gave a residual activity [1] of 107%, a residual activity [2] of 106% and a residual activity [3] of 90.6%. It also gave a residual activity [4] of 104%, a residual activity [5] of 94.5% and a residual activity [6] of 91.8%. It also gave a residual activity [7] of 96.9%, a residual activity [8] of 102% and a residual activity [9] of 96.6%. It also gave a residual activity [10] of 101%, a residual activity [11] of 92.6% and a residual activity [12] of 93.4%. For the same compound, the residual activity [13] was 103%, the residual activity [14] was 96.5% and the residual activity [15] was 71.6%. For the same compound, the residual activity [16] was 110%, the residual activity [17] was 100% and the residual activity [18] was 95.4%. The residual activity [19] was 92.2%, the residual activity [20] was 108% and the residual activity [21] was 88.9%. The residual activity [22] was 95.3%, the residual activity [23] was 97.1% and the residual activity [24] was 103%. For the same compound, the residual activity [25] was 99.5%, the residual activity [26] was 97.1% and the residual activity [27] was 98.4%. The residual activity [28] was 106%, the residual activity [29] was 90.7% and the residual activity [30] was 88.8%. It also gave a residual activity [31] of 100%, a residual activity [32] of 103% and a residual activity [33] of 114%. For the same compound, the residual activity [34] was 97.4%, the residual activity [35] was 100% and the residual activity [36] was 105%. The residual activity [37] was 95.7%, the residual activity [38] was 106% and the residual activity [39] was 113%. For the same compound, the residual activity [40] was 97.5%, the residual activity [41] was 84.2% and the residual activity [42] was 93.2%.
CC(C)[C@H](CO)Nc1nc(Nc2cc(N)cc(Cl)c2)c2ncn(C(C)C)c2n1 was tested, and the residual activity [1] was 33%, the residual activity [2] was 83.9% and the residual activity [3] was 104%. For the same compound, the residual activity [4] was 71.1%, the residual activity [5] was 26.4% and the residual activity [6] was 35.2%. The residual activity [7] was 106%, the residual activity [8] was 99.7% and the residual activity [9] was 57.1%. The residual activity [10] was 103%, the residual activity [11] was 76.9% and the residual activity [12] was 92.5%. It also gave a residual activity [13] of 95.3%, a residual activity [14] of 79.4% and a residual activity [15] of 93.4%. The residual activity [16] was 103%, the residual activity [17] was 99.2% and the residual activity [18] was 80.2%. The residual activity [19] was 108%, the residual activity [20] was 95.6% and the residual activity [21] was 86.1%. It also gave a residual activity [22] of 85.2%, a residual activity [23] of 79.7% and a residual activity [24] of 94.5%. It also gave a residual activity [25] of 46%, a residual activity [26] of 99.5% and a residual activity [27] of 100%. It also gave a residual activity [28] of 89%, a residual activity [29] of 61.5% and a residual activity [30] of 100%. The residual activity [31] was 75.6%, the residual activity [32] was 98% and the residual activity [33] was 93%. It also gave a residual activity [34] of 62.8%, a residual activity [35] of 132% and a residual activity [36] of 101%. It also gave a residual activity [37] of 113%, a residual activity [38] of 96.8% and a residual activity [39] of 81.8%. It also gave a residual activity [40] of 56.2%, a residual activity [41] of 41.5% and a residual activity [42] of 70.8%.
Work on Cn1nc2c3c(cccc31)C(=O)c1ccccc1-2 yielded a residual activity [1] of 89.5%, a residual activity [2] of 106% and a residual activity [3] of 109%. The residual activity [4] was 97%, the residual activity [5] was 102% and the residual activity [6] was 91.5%. The residual activity [7] was 86.6%, the residual activity [8] was 107% and the residual activity [9] was 94.1%. The residual activity [10] was 129%, the residual activity [11] was 94.8% and the residual activity [12] was 99.4%. The residual activity [13] was 85.5%, the residual activity [14] was 95.9% and the residual activity [15] was 108%. It also gave a residual activity [16] of 94%, a residual activity [17] of 112% and a residual activity [18] of 88.3%. It also gave a residual activity [19] of 107%, a residual activity [20] of 93.1% and a residual activity [21] of 85.1%. For the same compound, the residual activity [22] was 96.6%, the residual activity [23] was 95.9% and the residual activity [24] was 92.3%. The residual activity [25] was 88.4%, the residual activity [26] was 78.8% and the residual activity [27] was 96.7%. The residual activity [28] was 93.1%, the residual activity [29] was 46.2% and the residual activity [30] was 102%. The residual activity [31] was 108%, the residual activity [32] was 80.3% and the residual activity [33] was 76.8%. It also gave a residual activity [34] of 96.2%, a residual activity [35] of 101% and a residual activity [36] of 104%. It also gave a residual activity [37] of 87%, a residual activity [38] of 104% and a residual activity [39] of 96.5%. The residual activity [40] was 81.3%, the residual activity [41] was 101% and the residual activity [42] was 92.3%.
